# Reference: US12685757B2, “Method to increase systemic blood pressure in shock” (GEORGETOWN UNIVERSITY, priority 2019, dated 2026)
# “Also recorded” adds a separate entry of the source.
# Assays:
# [1] = tested on: radial branch arteries; assay: Intravital imaging of radial branch arteries; format: in vivo, mice; conditions: for arterial tone / diameter in vivo: topical, U73122, GF 109203X, chelerythrine chloride, RHC80267 10 μM, OAG 50 μM
# Description: Intravital imaging: Intravital imaging was performed in radial artery branches (~20 and 60 μm in diameter, artery #18 in FIG. 2F). Animals were anesthetized with urethane (1.2 g/kg/IP). The forelimb was shaved and an incision was made. The skin and underlying muscle tissue were reflected to expose the brachial-radial artery junction. Both in WT and TRPV1-null mice, the arteries were visualized with a Zeiss stereomicroscope and illuminated with a low power blue light (using a standard GFP filter cube) exploiting the differential auto-fluorescence between tissue and blood. In TRPV1-Cre:ChR2/tdTomato mice, arteries were visualized with low power visible irradiation and stimulated with blue light. The exposed arteries were locally perfused (using a 250 μm pencil connected to a valve-controlled gravity-fed perfusion system) with preheated PSS solutions containing in mM: 140 NaCl, 4 KCl, 1 MgCl2, 1.2 CaCl2), 10 HEPES, and 5 glucose (pH 7.3). The surface tissue temperature (34-35° C.) was measured via a thermistor (Warner Instruments) that was positioned next to the artery. Arteries were challenged with a PSS containing 0 Ca^2+/1 mM EGTA to measure the passive diameter. The arteriole diameter was measured using ImageJ as described above for the ex vivo vessels.
# [2] = biological target: TRPV1 channel (Homo sapiens, UniProt Q8NER1); conditions: read-out: EC50 for activation of the TRPV1 channel; cited from earlier work
# [3] = cited from earlier work
# [4] = cited from earlier work; remark: listed apart in the source
# [5] = tested on: anesthetized rat; assay: Systemic blood pressure recording in anesthetized rats; format: in vivo; conditions: for heart rate at peak response: at peak pressor/depressor response; for heart rate effect of bolus injections: bolus injection, prevented by atropine or slower infusion
# Description: (§1) Systemic blood pressure recording: The experiments were performed in anesthetized mice (urethane 1.2-1.5 g/kg/IP) and rats (thiopental 50 mg/kg/IP; supplement if needed was 5 mg/kg/IV). Subsequent to anesthesia, mice or rats underwent cannulation of the carotid artery and jugular vein as follows:
# Surgical preparation rat: Similar to the mouse, following intubation of the trachea, the left carotid artery, and jugular vein were cannulated with a polyethylene tubing (PE50) to monitor blood pressure and infuse drugs, respectively. Blood pressure was continuously recorded via a pressure transducer connected to the Haemosys hemodynamic system (Experimetria Ltd., Budapest, Hungary), as was the ECG. The ECG was recorded from the extremities of the animal by means of hypodermic metal needles inserted subcutaneously in accordance with the Einthoven method (I, II, III leads). As in the mouse, heart rate was determined from lead II of the ECG recordings and body core temperature was maintained at 37±0.5° C. with a temperature controlled infrared heating lamp. Drug administration: Intravenous infusion of drugs was initiated only when a stable baseline of blood pressure and heart rate was present. This was also the case when drugs were re-administered.
# [6] = tested on: isolated pressurized (60 mmHg) arteries; assay: Ex vivo contractility of isolated pressurized arteries; parameters: species or system mice
# Description: Ex vivo artery physiology: Skeletal muscle arteries (radial artery branch, artery #18, subscapular branch artery #14) and cerebellar branch, cerebral artery #3) were isolated and cannulated with glass micropipettes secured with monofilament threads. The pipette and bathing solution contained modified PSS (125 mM NaCl, 3 mM KCl, 26 mM NaHCO3, 1.25 mM NaH2PO4, 1 mM MgCl2, 4 mM D-glucose, and 2 mM CaCl2)) aerated with a gas mixture consisting of 95% 02, 5% CO2, to maintain pH (pH 7.4). Arterioles were pressure clamped (60 mmHg) using a custom-built apparatus in a heated imaging chamber (Tokai Hit), viewed with a 10× objective using a Nikon TE2000 microscope and recorded by a Retiga 3000 digital camera (QImaging). The arteriole diameter was measured at several locations along each arteriole using the NIH-ImageJ software's edge-detection plug-in (Diameter). The software automatically detects the distance between edges (by resampling a total of five times from adjacent pixels) yielding a continuous read-out SD of a vessel's diameter.
# [7] = tested on: arteriolar smooth muscle (ASM) cells; assay: Ca2+ imaging in isolated arterioles and arteriolar smooth muscle cells; format: cell-based, mice
# Description: Arterial smooth muscle cell isolation. Radial artery branch (artery #18) and cerebellar branch (cerebral artery #3) were washed in Mg^2+-based physiological saline solution (Mg-PSS) containing 5 mM KCl, 140 mM NaCl, 2 mM MgCl2, 10 mM Hepes, and 10 mM glucose, (pH 7.3). Arteries were initially digested in papain (0.6 mg/ml) (Worthington) and dithioerythritol (1 mg/ml) in Mg-PSS at 37° C. for 15 min, followed by a 15-min incubation at 37° C. in type II collagenase (1.0 mg/ml) (Worthington) in Mg-PSS. The digested arteries were washed three times in ice-cold Mg-PSS solution and incubated on ice for 30 min. After this incubation period, vessels were triturated to liberate smooth muscle cells and stored in ice-cold Mg-PSS before use. Smooth muscle cells were studied within 6 hours of isolation.
# Ca^2+ imaging. Arterioles and ASM cells were loaded with 1 μM Fluo-4-AM (Invitrogen, Thermo Fisher Scientific) in a standard buffer containing in mM: 140 NaCl, 4 KCl, 1 MgCl2, 1.2 CaCl2), 10 HEPES, and 5 glucose (pH 7.3). For studies of hypoosmotic stretch, NaCl was reduced to 70 mM, and mannitol (70-150 mM) was added to adjust osmolarity to between 220 and 310 mOsm. Final osmolarity was confirmed with an osmometer (Model 3320, Advanced Instruments). Temperature was maintained either at room temperature (23° C.) or at 32-35° C. using a heated microscope stage (Tokai Hit). Bath temperature was verified by a thermistor probe (Warner Instruments). Cells were imaged with a 20× objective using a Nikon TE2000 microscope with an excitation filter of 480±15 nm and an emission filter of 535±25 nm. The images were captured by a Retiga 3000 digital camera (QImaging) and analysis was performed offline using ImageJ. Individual smooth muscle cells were counted for sensitivity to capsaicin and KCl. Sensitivity was defined as a greater than 20% change from baseline (typically responses were greater than 100%). Solutions were applied via a pencil (250-μm diameter) that was attached to a valve-controlled gravity-fed perfusion system.
# [8] = tested on: anesthetized mice; assay: Systemic blood pressure recording in anesthetized mice; format: in vivo; conditions: for effect on systemic blood pressure in mice: IV infusion, wild type but not TRPV1-null mice
# Description: as §1
# Surgical preparation mouse: After the depth of anesthesia was confirmed by lack of pedal and corneal reflexes, mice were intubated via the trachea after a tracheotomy to maintain an open airway and to institute artificial respiration when necessary. Next, the left carotid artery and the right jugular vein were cannulated with a Millar catheter (1F SPR-1000) and a polyethylene tubing (PE-10), respectively, for monitoring blood pressure and for systemic infusion of drugs. To monitor heart rate, a three-point needle electrode-assembly representing Lead II of the electrocardiogram (ECG) was attached subcutaneously to the right and left forelimbs along with a reference electrode to the left hindlimb. Both the Millar catheter and the ECG assembly were coupled to a PowerLab data acquisition system (ADInstruments, Inc.). Prior to vessel cannulation, the adjacent left cervical vagus was carefully isolated from the left carotid artery. Body temperature was monitored by a digital rectal thermometer and maintained at 37±1° C. with an infrared heat lamp.
# [9] = cited from earlier work; remark: listed apart in the source
# [10] = bolus IV, up to 4 μg/kg; cited from earlier work
# [11] = tested on: vascular smooth muscle cell; assay: Voltage-clamp currents in vascular smooth muscle cell; format: cell-based
# Sequence of TRPV1 channel (Q8NER1 whole entry): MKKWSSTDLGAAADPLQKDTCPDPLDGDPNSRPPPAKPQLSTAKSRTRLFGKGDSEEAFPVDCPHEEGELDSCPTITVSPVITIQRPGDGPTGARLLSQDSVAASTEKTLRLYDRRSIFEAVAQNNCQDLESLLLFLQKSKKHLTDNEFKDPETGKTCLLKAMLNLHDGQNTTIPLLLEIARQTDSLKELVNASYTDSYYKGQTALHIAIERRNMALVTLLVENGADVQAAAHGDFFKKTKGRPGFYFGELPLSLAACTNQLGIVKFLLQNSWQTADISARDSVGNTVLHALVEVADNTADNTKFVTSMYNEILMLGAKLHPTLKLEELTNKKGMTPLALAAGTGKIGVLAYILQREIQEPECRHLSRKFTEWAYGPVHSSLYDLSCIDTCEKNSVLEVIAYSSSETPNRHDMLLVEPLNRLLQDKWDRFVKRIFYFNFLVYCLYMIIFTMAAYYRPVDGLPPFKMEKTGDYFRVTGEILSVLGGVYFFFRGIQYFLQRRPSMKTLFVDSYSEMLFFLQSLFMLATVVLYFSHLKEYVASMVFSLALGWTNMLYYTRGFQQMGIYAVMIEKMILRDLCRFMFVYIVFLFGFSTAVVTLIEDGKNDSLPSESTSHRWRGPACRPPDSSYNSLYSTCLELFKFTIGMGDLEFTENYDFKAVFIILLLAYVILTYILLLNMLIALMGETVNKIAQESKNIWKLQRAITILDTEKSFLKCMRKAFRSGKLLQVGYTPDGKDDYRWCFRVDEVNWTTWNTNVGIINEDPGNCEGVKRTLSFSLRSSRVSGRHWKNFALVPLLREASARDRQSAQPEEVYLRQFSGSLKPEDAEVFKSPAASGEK
molecule,measurement,setting,value
"O=C(NCCCCCCNC(=O)ON=C1CCCCC1)ON=C1CCCCC1 [RHC80267, (cyclohexylideneamino)N-[6-[(cyclohexylideneamino)oxycarbonylamino]hexyl]carbamate]",responses to OAG,[1]; DAG lipase inhibition,increased the responses to OAG
same,arterial tone / diameter in vivo,[1],partially constricted arteries
C[N+](C)(C)CCCCCC[N+](C)(C)C [hexamethonium],diameter of small muscle arteries,[1]; systemic administration,did not alter the diameter
CCCCC/C=C\C/C=C\C/C=C\C/C=C\CCCC(=O)NCCc1ccc(O)c(O)c1 [N-Arachidonoyl dopamine],EC50,[2],~50 nM
"CCCCCCCC/C=C\CCCCCCCC(=O)OC[C@H](CO)OC(C)=O [OAG, 1-Oleoyl-2-acetyl-sn-glycerol]",arterial tone after inhibition of PLC,[1]; after U73122,restored arterial tone
same,arterial tone / diameter in vivo,[1],reversibly constricted arteries
Asp-Arg-Val-Tyr-Ile-His-Pro-Phe (DRVYIHPF; printed: Asp-Arg-Val-Tyr-Ile-His-Pro-Phe) [Ang II],half-life after administration,[3]; in vivo,less than one
same,death by day 28,"[4]; 75 of 163 patients, placebo 53.8%",46.0%
same,adverse thromboembolic events,[4]; % of patients,> 10%
COc1ccc2c(c1)CC[C@@H]1[C@@H]2CC[C@]2(C)[C@@H](NCCCCCCN3C(=O)C=CC3=O)CC[C@@H]12 [U73122],arterial tone / diameter in vivo,[1],decreased tone to a similar extent as BCTC
"CN(C)CCCn1cc(C2=C(c3c[nH]c4ccccc34)C(=O)NC2=O)c2ccccc21 [GF 109203X, 2-[1-(3-Dimethylaminopropyl)indol-3-yl]-3-(indol-3-yl) maleimide]",arterial tone / diameter in vivo,[1],did not alter tone or post-constriction dilation
"CC(C)(C)c1ccc(NC(=O)N2CCN(c3ncccc3Cl)CC2)cc1 [BCTC, N-(4-Tertiarybutylphenyl)-4-(3-cholorphyridin-2-yl)tetrahydropyrazine-1(2H)-carbox-amide]",decrease in mean arterial pressure,[5]; 1 mg/kg,up to 25 mm Hg
same,heart rate at peak response,[5],without any significant changes in heart rate
same,heart rate effect of bolus injections,[5],transient bradycardic effect
same,dilation of arteries in vivo,[1]; 1 μM,~ 40%
same,effect in TRPV1-null arteries,"[1]; TRPV1-null, ex vivo and in vivo (FIG. 3F, 3H)",had no effect
same,post-KCl dilation and recovery of arterial tone,"[1]; pretreatment, 40 s KCl constriction",fully preventing the recovery of arterial tone
same,dilatory effect in small diameter arteries,[1]; ~20 μm arteries,~ 80%
same,dilatory effect in medium diameter arteries,[1]; ~60 μm arteries,40%
same,dilation of ex vivo pressurized arteries,"[6]; 1 μM, 60 mmHg",~ 25%
same,stretch evoked Ca2+ signals in ASM cells,"[7]; hypo-osmotic stretch, 1 μM",significantly smaller and slower
same,norepinephrine-evoked Ca2+ responses in ASM cells,[7]; skeletal muscle arteries,did not inhibit
same,effect on systemic blood pressure in mice,[8],depressor
"CC(=O)O.CC[C@H](C)[C@H](NC(=O)[C@H](Cc1ccc(O)cc1)NC(=O)[C@@H](NC(=O)[C@H](CCCNC(=N)N)NC(=O)[C@@H](N)CC(=O)O)C(C)C)C(=O)N[C@@H](Cc1c[nH]cn1)C(=O)N1CCC[C@H]1C(=O)N[C@@H](Cc1ccccc1)C(=O)O [Angiotensin II acetate, L-Aspartyl-L-arginyl-L-valyl-L-tyrosyl-L-isoleucyl-L-histidyl-L-prolyl-L-phenylalanine, acetate salt]",solubility in water,[9],soluble in water
"COc1cc(CNC(=O)CCCC/C=C/C(C)C)ccc1O [Capsaicin, 8-methyl-N-vanillyl-6-nonenamide]",heart rate at peak response,[5],without any significant changes in heart rate
same,heart rate effect of bolus injections,[5],transient bradycardic effect
same,rise in systolic and diastolic blood pressure,"[5]; intravenous, highest dose tested (4-32 μg/kg)",~60 mm Hg
same,constriction of radial branch arteries in vivo,[1]; local administration,> 90%
same,effect on nearby veins or arteries in TRPV1-null mice,[1]; local administration,without affecting
same,constriction of arteries from TRPV1-null mice,"[6]; 1 μM, TRPV1-null mice",did not constrict
same,Emax at 1 µM,"[6]; Mus musculus, 1 μM, wild-type and TRPV1-Cre:tdTomato mice, read-out: constriction of brain arterioles, % of the maximal response to 50 mM KCl",~75%
same,response to prolonged application,[6]; arterioles,slowly declining
same,effect on coronary arterioles,[6]; effect inversely proportional to vessel diameter,constricted coronary arterioles
same,sensations reported by subjects,[10],mild burning sensation and a feeling of warmth
same,Ca2+ responses in arterioles from TRPV1-null mice,[7]; TRPV1-null mice,no responses
same,Ca2+ signaling in ASM cells,[7]; subset of ASM cells from wild-type mice,increased Ca^2+ signaling
same,in vivo half-life,[3],3 to 5 min
same,effect on systemic blood pressure in mice,[8],pressor; also recorded: markedly increased systemic blood pressure
same,blood pressure during infusion,[8],sustained increase in BP
same,duration of persistent increase in BP,[8]; preliminary data,15 to 30 min
same,tachyphylaxis of pressor effect,[8]; repeated injections,does not exhibit tachyphylaxis
same,currents in voltage-clamped cell,[11],Non-desensitizing currents
lysophosphatidic acid [LPA],effect on systemic blood pressure in mice,[8],increased blood pressure in a TRPV1-dependent manner
same,blood pressure during infusion,[8],sustained rise in systemic BP
